Results on two compounds are retold here after US9421356B2, “Transdermal methods and systems for the delivery of corticosteroid compounds” (priority 2007, dated 2016).

Like-named read-outs stand apart in the source and are kept apart here.

The conditions of data set [1]: iontophoresis of 4 mg/ml solution, charge dosage 40-80 mA-minutes, cited from earlier work.
Data set [2] is described as follows: Systemic delivery study: plasma pharmacokinetics after iontophoretic patch or subcutaneous injection. Particulars: subcutaneous 6 mg; for Cmax / half-life / AUC(0-t): pig, sc; for half-life: read-out: t½ (converted). Type of data set: in vivo, domestic swine. The source says:
The purpose of the study was to determine the systemic plasma exposure, absorption characteristics and elimination characteristics of the active agent Dexamethasone sodium phosphate, (DexP) when administered from either a subcutaneous injection or an iontophoretic patch in domestic swine.
The patch is an active (iontophoretic) drug delivery patch which employs a low-level electrical field produced by a novel power source incorporated into the patch to “drive” the drug into the body in a pain-free manner. This system has advantages over passive patches, including more rapid and controlled delivery and the ability to deliver a wider variety of drugs.
The study entailed administration of DexP from three concurrently applied patches delivered at 150 μA, 225 μA and 300 μA over a 9 hour period in 1 male and 1 female domestic swine. Each patch contained a 10 mg/ml Dexamethasone sodium phosphate gel (2% HPMC) in the donor cell compartment, and a 0.9% saline gel (2% HPMC) in the return cell compartment. As a comparator, a subcutaneous 6 mg dose of DexP was delivered to 1 male and 1 female domestic swine. All animals were implanted with a central venous access port (Hickman catheter) prior to administration of the drug and plasma samples were obtained pre-dosing and up to 24 hours after dosing. Samples were analyzed for the presence of dexamethasone phosphate and the data tabulated and selected pharmacokinetic parameters were calculated.

Setting [3] is: in vivo, female swine (animal 8P168).
Setting [4] is: in vivo, male swine (animal 8P167).

In the case of `C[C@@H]1C[C@H]2[C@@H]3CCC4=CC(=O)C=C[C@]4(C)[C@@]3(F)[C@@H](O)C[C@]2(C)[C@@]1(O)C(=O)CO` [dexamethasone], in data set [1] (J Pharm Compounding 2003), the “amount of dexamethasone delivered (highest estimate)” value is reported as 1.4 milligrams. In data set [1] (Petelenz 1992), the “amount of dexamethasone delivered (lowest estimate)” value is 10 micrograms.

What is called Cmax is the highest concentration seen after dosing. Take `C[C@@H]1C[C@H]2[C@@H]3CCC4=CC(=O)C=C[C@]4(C)[C@@]3(F)[C@@H](O)C[C@]2(C)[C@@]1(O)C(=O)COP(=O)(O)O` [DexP, Dexamethasone sodium phosphate]: the Cmax was 27.3 ng/mL in data set [2] (setting [3]) and 28.4 ng/mL in data set [2] (setting [4]). Also, the values for the half-life in data set [2] (setting [3]) and in data set [2] (setting [4]) were 1.5 h and 0.85 h, respectively. For the same compound, the AUC(0-t) in data set [2] (in vivo, male swine (animal 8P167), read-out: AUC(0-12)) was 36.4 ng·h/mL; in data set [2] (plasma, female swine, read-out: AUC(0-14)), 60.5 ng·h/mL. The “AUC(0-12)” value in data set [2] (female swine (animal 8P168)) is 60.5 ng·h/mL.
